Molecular target: T1, human ferroportin (Homo sapiens, UniProt Q9NP59)
T1 construct: luciferase reporter (read with the Nano-Glo Luciferase Assay System); expressed in transfected cells; host or cells: CHO cells, stably transfected, expression induced with doxycycline
T1 sequence (Q9NP59 1-571): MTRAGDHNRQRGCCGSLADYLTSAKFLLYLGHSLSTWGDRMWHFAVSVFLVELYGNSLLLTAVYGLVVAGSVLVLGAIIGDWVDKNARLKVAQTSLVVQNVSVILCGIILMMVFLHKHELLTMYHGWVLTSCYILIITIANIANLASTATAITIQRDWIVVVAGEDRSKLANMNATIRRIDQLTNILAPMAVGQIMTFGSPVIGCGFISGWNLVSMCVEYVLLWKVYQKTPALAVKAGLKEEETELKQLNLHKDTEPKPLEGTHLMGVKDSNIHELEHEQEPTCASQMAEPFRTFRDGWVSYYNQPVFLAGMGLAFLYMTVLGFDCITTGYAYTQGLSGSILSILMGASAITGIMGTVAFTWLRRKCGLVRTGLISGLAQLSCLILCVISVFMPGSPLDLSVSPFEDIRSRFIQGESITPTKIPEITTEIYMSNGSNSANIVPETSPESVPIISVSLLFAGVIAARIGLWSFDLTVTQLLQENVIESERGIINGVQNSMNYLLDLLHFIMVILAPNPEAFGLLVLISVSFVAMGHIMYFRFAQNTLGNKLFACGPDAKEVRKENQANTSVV
Assay: Biological in-vitro ferroportin internalization assay (luciferase reporter)
Format: cell-based
Details: average pEC50; stably-transfected CHO cell line expressing human ferroportin tagged to a luciferase reporter; 6 h incubation with test compound
How it was run: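 Stably transfected CHO cells expressing luciferase-tagged human ferroportin, plated 24 h with ferric ammonium citrate and induced with doxycycline for 24 h. Compounds incubated 6 h, then luciferase activity measured by Nano-Glo; average pEC50 reported.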

Row | pEC50 | SMILES
1 | 7.4 | CN(CC(=O)N[C@@H]1CCOC1)c1nc(-c2cc(OCC(C)(C)O)ccn2)nc2c1CCC2 [Compound 422, 2-({2-[4-(2-hydroxy-2-methylpropoxy)pyridin-2-yl]-5H,6H,7H-cyclopenta[d]pyrimidin-4-yl}(methyl)amino)-N-[(3R)-oxolan-3-yl]acetamide]
2 | 7.2 | CN(CC(=O)NC1COC1)c1nc(-c2cc(OCCO)ccn2)nc2c1CCC2 [Compound 374, 2-({2-[4-(2-hydroxyethoxy)pyridin-2-yl]-5H,6H,7H-cyclopenta[d]pyrimidin-4-yl}(methyl)amino)-N-(oxetan-3-yl)acetamide]
3 | 5.7 | CC(C)(C)NC(=O)CNc1nc(-c2ncccn2)nc2c1CCC2 [Compound 33, N-tert-butyl-2-{[2-(pyrimidin-2-yl)-5H,6H,7H-cyclopenta[d]pyrimidin-4-yl]amino}acetamide]
4 | 8.3 | Cc1ccc(NC(=O)CN(C)c2nc(-c3cc(OCCO)ccn3)nc3c2C(C)(C)CC3)cn1 [Compound 331, 2-({2-[4-(2-hydroxyethoxy)pyridin-2-yl]-5,5-dimethyl-5H,6H,7H-cyclopenta[d]pyrimidin-4-yl}(methyl)amino)-N-(6-methylpyridin-3-yl)acetamide]
5 | 5.8 | COc1cnc(-c2nc3c(c(N(C)CC(=O)NC(C)(C)C)n2)CCC3)cn1 [Compound 12, N-tert-butyl-2-{[2-(5-methoxypyrazin-2-yl)-5H,6H,7H-cyclopenta[d]pyrimidin-4-yl](methyl)amino}acetamide]
6 | 7.4 | CC(C)NC(=O)[C@H](C)N(C)c1nc(-c2cc(OCCN(C)C)ccn2)nc2c1CCC2 [Compound 434, (2S)-2-[(2-{4-[2-(dimethylamino)ethoxy]pyridin-2-yl}-5H,6H,7H-cyclopenta[d]pyrimidin-4-yl)(methyl)amino]-N-(propan-2-yl)propanamide]
7 | 6.9 | CN(CC(=O)NC(C)(C)C)c1nc(-c2cn(CCO)cn2)nc2c1CCC2 [Compound 195, N-tert-butyl-2-({2-[1-(2-hydroxyethyl)-1H-imidazol-4-yl]-5H,6H,7H-cyclopenta[d]pyrimidin-4-yl}(methyl)amino)acetamide]
8 | 8 | C[C@H](O)COc1ccnc(-c2nc3c(c(N(C)CC(=O)NC4(C)CCC4)n2)CCC3)c1 [Compound 378, 2-[(2-{4-[(2S)-2-hydroxypropoxy]pyridin-2-yl}-5H,6H,7H-cyclopenta[d]pyrimidin-4-yl)(methyl)amino]-N-(1-methylcyclobutyl)acetamide]
9 | 8.1 | CN(CC(=O)Nc1ccc(C2CC2)nc1)c1nc(-c2cc(OCCO)ccn2)nc2c1CCC2 [Compound 308, N-(6-cyclopropylpyridin-3-yl)-2-({2-[4-(2-hydroxyethoxy)pyridin-2-yl]-5H,6H,7H-cyclopenta[d]pyrimidin-4-yl}(methyl)amino)acetamide]
10 | 6.3 | CN(C)CCOc1ccnc(-c2nc3c(c(N(C)CC(=O)NC(C)(C)C)n2)CCC3O)c1 (stereo not shown) [Compound 494, N-tert-butyl-2-[(2-{4-[2-(dimethylamino)ethoxy]pyridin-2-yl}-7-hydroxy-5H,6H,7H-cyclopenta[d]pyrimidin-4-yl)(methyl)amino]acetamide]
11 | 7.3 | COc1ccnc(-c2nc3c(c(N(C)CC(=O)N(C)C)n2)CCC3)c1 [Compound 157, 2-{[2-(4-methoxypyridin-2-yl)-5H,6H,7H-cyclopenta[d]pyrimidin-4-yl](methyl)amino}-N,N-dimethylacetamide]
12 | 6.5 | CN(CC(=O)NC1CCOCC1)c1nc(-c2ccccn2)nc2c1CCC2 [Compound 79, 2-{methyl[2-(pyridin-2-yl)-5H,6H,7H-cyclopenta[d]pyrimidin-4-yl]amino}-N-(oxan-4-yl)acetamide]
13 | 6.8 | CN(Cc1nc2ccccc2o1)c1nc(-c2ccccn2)nc2c1CCC2 [Compound 82, N-[(1,3-benzoxazol-2-yl)methyl]-N-methyl-2-(pyridin-2-yl)-5H,6H,7H-cyclopenta[d]pyrimidin-4-amine]
14 | 7.7 | CN(CC(=O)NC1(C)CCCC1)c1nc(-c2cc3cn[nH]c3cn2)nc2c1CCC2 [Compound 184, 2-[methyl(2-{1H-pyrazolo[3,4-c]pyridin-5-yl}-5H,6H,7H-cyclopenta[d]pyrimidin-4-yl)amino]-N-(1-methylcyclopentyl)acetamide]
15 | 7.2 | COc1ccnc(-c2nc3c(c(N(C)Cc4nc(Cc5ccccc5)co4)n2)CCC3)c1 [Compound 379, N-[(4-benzyl-1,3-oxazol-2-yl)methyl]-2-(4-methoxypyridin-2-yl)-N-methyl-5H,6H,7H-cyclopenta[d]pyrimidin-4-aminemide]
16 | 6.9 | CN(c1nc(-c2ccccn2)nc2c1CCC2)[C@@H]1CCN(c2ccccc2)C1=O [Compound 130, (3R)-3-{methyl[2-(pyridin-2-yl)-5H,6H,7H-cyclopenta[d]pyrimidin-4-yl]amino}-1-phenylpyrrolidin-2-one]
